Test results reported in PubChem BioAssay (NCI).
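Results reflect a 48-hour exposure of cells in 96-well plates to compound at five concentrations. TGI is the concentration that stops growth completely.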

Assays:
Assay in all cases: NCI anticancer screen, dose series, 48 h
HOP-92 NSCLC = test system: HOP-92 NSCLC
SW-620 colon = test system: SW-620 colon
HT29 colon = test system: HT29 colon
SNB-19 CNS = test system: SNB-19 CNS
SK-MEL-5 melanoma = test system: SK-MEL-5 melanoma
NCI-H522 lung = test system: NCI-H522 lung
DMS 114 small cell lung = test system: DMS 114 small cell lung
SF-539 CNS = test system: SF-539 CNS
HOP-62 NSCLC = test system: HOP-62 NSCLC
HCC-2998 colon = test system: HCC-2998 colon
NCI-H23 lung = test system: NCI-H23 lung
UACC-257 melanoma = test system: UACC-257 melanoma
MOLT-4 leukemia = test system: MOLT-4 leukemia
UO-31 renal = test system: UO-31 renal
SNB-78 CNS = test system: SNB-78 CNS
NCI-H226 lung = test system: NCI-H226 lung
SK-MEL-28 melanoma = test system: SK-MEL-28 melanoma
HL-60(TB) leukemia = test system: HL-60(TB) leukemia
SR leukemia = test system: SR leukemia
SK-OV-3 ovarian = test system: SK-OV-3 ovarian
M19-MEL melanoma = test system: M19-MEL melanoma
OVCAR-8 ovarian = test system: OVCAR-8 ovarian
DLD-1 colon = test system: DLD-1 colon
OVCAR-4 ovarian = test system: OVCAR-4 ovarian
COLO 205 colon = test system: COLO 205 colon
MALME-3M melanoma = test system: MALME-3M melanoma
HCT-116 colon = test system: HCT-116 colon
SF-295 CNS = test system: SF-295 CNS
SNB-75 CNS = test system: SNB-75 CNS
SK-MEL-2 melanoma = test system: SK-MEL-2 melanoma
KM12 colon = test system: KM12 colon
LXFL 529 NSCLC = test system: LXFL 529 NSCLC
DMS 273 small cell lung = test system: DMS 273 small cell lung
K-562 leukemia = test system: K-562 leukemia
UACC-62 melanoma = test system: UACC-62 melanoma
SF-268 CNS = test system: SF-268 CNS
OVCAR-3 ovarian = test system: OVCAR-3 ovarian
CCRF-CEM leukemia = test system: CCRF-CEM leukemia
CAKI-1 renal = test system: CAKI-1 renal
786-0 renal = test system: 786-0 renal
TK-10 renal = test system: TK-10 renal
A549 NSCLC = test system: A549 NSCLC
RPMI-8226 leukemia = test system: RPMI-8226 leukemia
EKVX NSCLC = test system: EKVX NSCLC
SN12C renal = test system: SN12C renal
M14 melanoma = test system: M14 melanoma
BT-549 breast = test system: BT-549 breast
IGROV1 ovarian = test system: IGROV1 ovarian
MDA-N = test system: MDA-N
HCT-15 colon = test system: HCT-15 colon
ACHN renal = test system: ACHN renal
NCI-H460 lung = test system: NCI-H460 lung
HS 578T breast = test system: HS 578T breast
LOX IMVI melanoma = test system: LOX IMVI melanoma
U251 CNS = test system: U251 CNS
NCI/ADR-RES ovarian = test system: NCI/ADR-RES ovarian
MDA-MB-231 breast = test system: MDA-MB-231 breast
RXF 393 renal = test system: RXF 393 renal
MDA-MB-435 = test system: MDA-MB-435
MCF7 breast = test system: MCF7 breast
A498 renal = test system: A498 renal
DU-145 prostate = test system: DU-145 prostate
PC-3 prostate = test system: PC-3 prostate
T-47D breast = test system: T-47D breast

In the case of `O=S1(=O)OCCOS(=O)(=O)C1(Br)Br`, the TGI (HOP-92 NSCLC) is reported as > 100 µM, the TGI (SW-620 colon) is reported as > 100 µM and the TGI (HT29 colon) is reported as > 100 µM. For the same compound, the TGI (SNB-19 CNS) was > 100 µM, the TGI (SK-MEL-5 melanoma) was > 100 µM and the TGI (NCI-H522 lung) was > 100 µM. For the same compound, the TGI (DMS 114 small cell lung) was > 100 µM, the TGI (SF-539 CNS) was > 100 µM and the TGI (HOP-62 NSCLC) was > 100 µM. For the same compound, the TGI (HCC-2998 colon) was > 100 µM, the TGI (NCI-H23 lung) was > 100 µM and the TGI (UACC-257 melanoma) was > 100 µM. The TGI (MOLT-4 leukemia) was > 100 µM, the TGI (UO-31 renal) was > 100 µM and the TGI (SNB-78 CNS) was > 100 µM. The TGI (NCI-H226 lung) was 94.1 µM, the TGI (SK-MEL-28 melanoma) was > 100 µM and the TGI (HL-60(TB) leukemia) was > 100 µM. The TGI (SR leukemia) was > 100 µM, the TGI (SK-OV-3 ovarian) was > 100 µM and the TGI (M19-MEL melanoma) was > 100 µM. For the same compound, the TGI (OVCAR-8 ovarian) was > 100 µM, the TGI (DLD-1 colon) was > 100 µM and the TGI (OVCAR-4 ovarian) was > 100 µM. For the same compound, the TGI (COLO 205 colon) was > 100 µM, the TGI (MALME-3M melanoma) was > 100 µM and the TGI (HCT-116 colon) was > 100 µM. The TGI (SF-295 CNS) was > 100 µM, the TGI (SNB-75 CNS) was > 100 µM and the TGI (SK-MEL-2 melanoma) was > 100 µM. The TGI (KM12 colon) was > 100 µM, the TGI (LXFL 529 NSCLC) was > 100 µM and the TGI (DMS 273 small cell lung) was > 100 µM. The TGI (K-562 leukemia) was > 100 µM, the TGI (UACC-62 melanoma) was > 100 µM and the TGI (SF-268 CNS) was > 100 µM. For the same compound, the TGI (OVCAR-3 ovarian) was > 100 µM, the TGI (CCRF-CEM leukemia) was > 100 µM and the TGI (CAKI-1 renal) was > 100 µM. For the same compound, the TGI (786-0 renal) was > 100 µM, the TGI (TK-10 renal) was > 100 µM and the TGI (A549 NSCLC) was > 100 µM. The TGI (RPMI-8226 leukemia) was > 100 µM, the TGI (EKVX NSCLC) was > 100 µM and the TGI (SN12C renal) was > 100 µM. For the same compound, the TGI (M14 melanoma) was > 100 µM.

In the case of `COc1cc(C2SCC(=O)N2c2ccc(Cl)cc2)cc(OC)c1OC` (stereo not drawn), the TGI (BT-549 breast) is reported as > 100 µM, the TGI (HOP-92 NSCLC) is reported as > 100 µM and the TGI (IGROV1 ovarian) is reported as > 100 µM. The TGI (SW-620 colon) was > 100 µM, the TGI (HT29 colon) was > 41 µM and the TGI (SNB-19 CNS) was > 100 µM. For the same compound, the TGI (SK-MEL-5 melanoma) was > 100 µM, the TGI (NCI-H522 lung) was > 100 µM and the TGI (SF-539 CNS) was > 100 µM. The TGI (MDA-N) was 20.9 µM, the TGI (HOP-62 NSCLC) was > 100 µM and the TGI (HCC-2998 colon) was > 100 µM. The TGI (NCI-H23 lung) was > 100 µM, the TGI (HCT-15 colon) was > 100 µM and the TGI (ACHN renal) was > 100 µM. The TGI (NCI-H460 lung) was > 100 µM, the TGI (UACC-257 melanoma) was > 100 µM and the TGI (MOLT-4 leukemia) was 30.7 µM. For the same compound, the TGI (UO-31 renal) was > 100 µM, the TGI (NCI-H226 lung) was 98.4 µM and the TGI (SK-MEL-28 melanoma) was > 100 µM. The TGI (HL-60(TB) leukemia) was 29.2 µM, the TGI (SR leukemia) was 39.2 µM and the TGI (SK-OV-3 ovarian) was > 100 µM. The TGI (HS 578T breast) was > 100 µM, the TGI (LOX IMVI melanoma) was > 100 µM and the TGI (OVCAR-8 ovarian) was > 100 µM. The TGI (U251 CNS) was > 100 µM, the TGI (NCI/ADR-RES ovarian) was > 100 µM and the TGI (MDA-MB-231 breast) was > 100 µM. For the same compound, the TGI (OVCAR-4 ovarian) was > 100 µM, the TGI (COLO 205 colon) was > 56.8 µM and the TGI (MALME-3M melanoma) was > 100 µM. The TGI (HCT-116 colon) was > 100 µM, the TGI (SF-295 CNS) was > 100 µM and the TGI (RXF 393 renal) was 71.2 µM. For the same compound, the TGI (MDA-MB-435) was 19.4 µM, the TGI (MCF7 breast) was > 100 µM and the TGI (SNB-75 CNS) was > 100 µM. For the same compound, the TGI (A498 renal) was > 100 µM, the TGI (SK-MEL-2 melanoma) was > 100 µM and the TGI (KM12 colon) was > 82.8 µM. The TGI (K-562 leukemia) was > 52.9 µM, the TGI (SF-268 CNS) was > 100 µM and the TGI (OVCAR-3 ovarian) was > 100 µM. For the same compound, the TGI (CCRF-CEM leukemia) was 30.6 µM, the TGI (CAKI-1 renal) was > 100 µM and the TGI (DU-145 prostate) was > 100 µM. For the same compound, the TGI (786-0 renal) was 99.6 µM, the TGI (TK-10 renal) was > 100 µM and the TGI (PC-3 prostate) was > 100 µM. For the same compound, the TGI (A549 NSCLC) was > 100 µM, the TGI (RPMI-8226 leukemia) was > 55.3 µM and the TGI (EKVX NSCLC) was > 60.1 µM. The TGI (SN12C renal) was > 100 µM, the TGI (T-47D breast) was > 24.2 µM and the TGI (M14 melanoma) was > 57.8 µM.
